From paper PMC8007111, “Novel Potent Muscarinic Receptor Antagonists: Investigation on the Nature of Lipophilic Substituents in the 5- and/or 6-Positions of the 1,4-Dioxane Nucleus” (Journal of Medicinal Chemistry, 2020)
Read-outs that look alike come from different tables or passages of the source. Each block holds one compound with its values, some of them ahead of it.

Key:
hM4 mAChR [1] = target: T1, hM4 mAChR (Homo sapiens, UniProt P08173); assay: [3H]NMS inhibition radioligand binding, hM4 in CHO-K1 cell membranes; settings: [3H]NMS, CHO-K1 cell membranes, mean ± S.E.M.
T1 construct: expressed in transfected cells; host or cells: CHO-K1 (membrane preparation)
T1 sequence (P08173 1-479): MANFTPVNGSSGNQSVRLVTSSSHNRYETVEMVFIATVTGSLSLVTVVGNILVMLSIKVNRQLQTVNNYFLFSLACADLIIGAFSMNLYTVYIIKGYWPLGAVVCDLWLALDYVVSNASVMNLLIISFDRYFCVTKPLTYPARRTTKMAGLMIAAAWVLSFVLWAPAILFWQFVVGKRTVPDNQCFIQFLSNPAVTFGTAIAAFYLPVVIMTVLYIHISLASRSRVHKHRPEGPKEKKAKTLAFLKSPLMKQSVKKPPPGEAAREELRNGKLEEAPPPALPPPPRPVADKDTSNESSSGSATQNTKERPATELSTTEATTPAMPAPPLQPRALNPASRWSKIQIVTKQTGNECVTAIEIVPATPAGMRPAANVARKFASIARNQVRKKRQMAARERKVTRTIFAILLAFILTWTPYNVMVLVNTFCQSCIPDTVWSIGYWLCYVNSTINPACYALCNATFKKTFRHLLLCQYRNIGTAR

hM5 mAChR [2] = target: T2, hM5 mAChR (Homo sapiens, UniProt P08912); assay: [3H]NMS inhibition radioligand binding, hM5 in CHO-K1 cell membranes; settings: [3H]NMS, CHO-K1 cell membranes, mean ± S.E.M.
T2 construct: expressed in transfected cells; host or cells: CHO-K1 (membrane preparation)
T2 sequence (P08912 1-532): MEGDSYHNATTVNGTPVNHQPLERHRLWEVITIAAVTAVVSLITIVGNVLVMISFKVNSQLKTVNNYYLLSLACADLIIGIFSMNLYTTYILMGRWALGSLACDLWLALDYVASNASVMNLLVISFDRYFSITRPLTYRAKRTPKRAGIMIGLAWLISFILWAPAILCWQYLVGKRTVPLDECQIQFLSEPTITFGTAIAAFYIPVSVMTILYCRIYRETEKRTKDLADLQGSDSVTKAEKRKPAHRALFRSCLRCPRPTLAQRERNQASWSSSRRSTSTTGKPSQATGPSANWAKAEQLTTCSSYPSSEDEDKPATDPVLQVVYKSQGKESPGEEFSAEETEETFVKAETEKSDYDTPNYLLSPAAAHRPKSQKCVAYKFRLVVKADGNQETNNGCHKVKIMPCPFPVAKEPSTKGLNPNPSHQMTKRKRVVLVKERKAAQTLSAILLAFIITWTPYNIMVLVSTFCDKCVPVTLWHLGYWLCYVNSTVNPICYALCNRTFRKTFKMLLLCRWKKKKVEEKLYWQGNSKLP

hM2 mAChR [3] = target: T3, hM2 mAChR (Homo sapiens, UniProt P08172); assay: [3H]NMS inhibition radioligand binding, hM2 in CHO-K1 cell membranes; settings: [3H]NMS, CHO-K1 cell membranes, mean ± S.E.M.
T3 construct: expressed in transfected cells; host or cells: CHO-K1 (membrane preparation)
T3 sequence (P08172 1-466): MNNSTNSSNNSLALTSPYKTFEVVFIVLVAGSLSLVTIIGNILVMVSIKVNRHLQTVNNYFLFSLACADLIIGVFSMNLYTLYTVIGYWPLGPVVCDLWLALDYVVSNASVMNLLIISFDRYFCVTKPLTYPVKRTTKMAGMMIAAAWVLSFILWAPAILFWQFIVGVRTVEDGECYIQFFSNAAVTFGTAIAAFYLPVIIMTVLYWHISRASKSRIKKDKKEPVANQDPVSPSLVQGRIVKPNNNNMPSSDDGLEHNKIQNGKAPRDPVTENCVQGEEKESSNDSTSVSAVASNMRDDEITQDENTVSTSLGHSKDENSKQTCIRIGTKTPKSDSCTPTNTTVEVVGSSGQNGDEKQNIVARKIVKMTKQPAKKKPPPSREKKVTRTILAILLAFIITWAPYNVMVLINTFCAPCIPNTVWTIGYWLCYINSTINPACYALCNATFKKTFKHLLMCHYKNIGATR

hM3 mAChR [4] = target: T4, hM3 mAChR (Homo sapiens, UniProt P20309); assay: [3H]NMS inhibition radioligand binding, hM3 in CHO-K1 cell membranes; settings: [3H]NMS, CHO-K1 cell membranes, mean ± S.E.M.
T4 construct: expressed in transfected cells; host or cells: CHO-K1 (membrane preparation)
T4 sequence (P20309 whole entry): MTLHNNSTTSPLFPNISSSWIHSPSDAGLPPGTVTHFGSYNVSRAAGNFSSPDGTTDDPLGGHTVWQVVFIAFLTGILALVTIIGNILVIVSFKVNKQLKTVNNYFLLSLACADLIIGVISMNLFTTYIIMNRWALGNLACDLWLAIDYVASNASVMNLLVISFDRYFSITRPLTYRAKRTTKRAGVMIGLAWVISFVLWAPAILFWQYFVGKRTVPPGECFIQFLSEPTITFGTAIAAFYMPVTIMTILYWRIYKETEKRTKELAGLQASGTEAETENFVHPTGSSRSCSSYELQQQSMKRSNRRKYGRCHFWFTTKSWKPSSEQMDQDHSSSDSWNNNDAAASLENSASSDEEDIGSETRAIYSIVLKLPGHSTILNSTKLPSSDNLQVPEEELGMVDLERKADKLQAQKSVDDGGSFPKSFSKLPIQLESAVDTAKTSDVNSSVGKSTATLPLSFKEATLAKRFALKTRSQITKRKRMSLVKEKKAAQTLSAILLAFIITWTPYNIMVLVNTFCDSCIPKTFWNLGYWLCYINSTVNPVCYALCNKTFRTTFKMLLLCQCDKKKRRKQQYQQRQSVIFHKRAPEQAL

hM1 mAChR [5] = target: T5, hM1 mAChR (Homo sapiens, UniProt P11229); assay: [3H]NMS inhibition radioligand binding, hM1 in CHO-K1 cell membranes; settings: [3H]NMS, CHO-K1 cell membranes, mean ± S.E.M.
T5 construct: expressed in transfected cells; host or cells: CHO-K1 (membrane preparation)
T5 sequence (P11229 1-460): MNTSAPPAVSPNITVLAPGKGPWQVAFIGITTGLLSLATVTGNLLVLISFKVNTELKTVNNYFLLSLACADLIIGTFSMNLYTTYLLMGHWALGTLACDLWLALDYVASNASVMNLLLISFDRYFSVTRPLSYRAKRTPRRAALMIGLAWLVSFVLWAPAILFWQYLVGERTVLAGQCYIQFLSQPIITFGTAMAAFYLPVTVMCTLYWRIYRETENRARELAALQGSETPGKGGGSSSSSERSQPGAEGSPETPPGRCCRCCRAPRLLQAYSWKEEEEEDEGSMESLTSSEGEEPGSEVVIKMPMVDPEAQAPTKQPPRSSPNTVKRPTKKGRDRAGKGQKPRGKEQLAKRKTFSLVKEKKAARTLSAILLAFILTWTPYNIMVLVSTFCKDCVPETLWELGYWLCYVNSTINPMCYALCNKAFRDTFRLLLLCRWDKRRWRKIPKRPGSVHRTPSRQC

[6] = tested on: MSCs from mouse bone marrow; assay: Carbachol-induced MSC viability (MTS assay); format: cell-based
Protocol: It is well established that bone marrow MSC behavior is influenced by a variety of signaling systems. In context, cholinergic intramural stimuli and, in particular, muscarinic signals orchestrate MSCs viability and commitment.[11],[12] Considering also the pluripotent MSC nature and their contribution to bone, blood, and systemic homeostasis,[53] viability studies on MSCs were performed to determine the functional profile of 3b, the most interesting compound in this series. […] Successively, the efficacy of 3b in contrasting cell viability induced by the well-known mAChR agonist carbachol was evaluated. […] Further research on the intracellular mechanistic outcomes of 3b on MSCs remains mandatory.
The in vitro studies were performed by using bone marrow MSCs as a model. Male BALB/c mice (Harlan Italy SrL, Milano, Italy) (8 weeks old; body weight ∼24.5 g; n = 4) were kept in a laminar-flow cage in a standardized environmental condition. Food (Harlan, Italy), and water was supplied ad libitum. Mice were sacrificed by CO2 narcosis and cervical dislocation in accordance with the recommendations of the Italian Ethical Committee and under the supervision of authorized investigators. Long bones (femurs and tibiae) were dissected and cleaned from skin, muscle, and connective tissues as much as possible. Bones were placed in a culture dish containing sterile PBS. Then, the bone cavity was flushed in DMEM with a syringe in order to collect the bone marrow cells into a 50 mL sterile tube. […] After 2 weeks of initiating culture, cells were washed with PBS, detached by trypsinization, counted, and plated at the density of 5,000 cells/well in 96 culture plates (Costar Corp., Milano, Italy) in DMEM containing 10% HIFCS, penicillin, and streptomycin.
MSCs were treated with compound 3b (from 10^–4 to 10^–10 M) for 24 h. […] At the end of each procedure, the MSCs viability was measured by MTS assay. […] The quantity of the formazan product was directly proportional to the number of living cells in culture. The colored formazan was measured by reading the absorbance at 490 nm using a […] plate reader.

urinary bladder = tested on: urinary bladder; design: method as in PMID 22243489; settings: anesthetized rats; compared to oxybutynin; cited from earlier work
hM5 mAChR [7] = target: T2, hM5 mAChR; settings: cited from earlier work
hM2 mAChR [8] = target: T3, hM2 mAChR; settings: cited from earlier work
hM1 mAChR [9] = target: T5, hM1 mAChR; settings: cited from earlier work
hM4 mAChR [10] = target: T1, hM4 mAChR; settings: cited from earlier work
hM3 mAChR [11] = target: T4, hM3 mAChR; settings: cited from earlier work

SMILES: C[N+](C)(C)C[C@@H]1COC[C@@](c2ccccc2)(C2CCCCC2)O1.[I-] (relative stereo) [3a, 1-((2R*,6S*)-6-Cyclohexyl-6-phenyl-1,4-dioxan-2-yl)-N,N,N-trimethylmethanaminium Iodide]
pKi hM4 (hM4 mAChR [1]): 7.51 ± 0.08
pKi hM5 (hM5 mAChR [2]): 7.26 ± 0.05
pKi hM2 (hM2 mAChR [3]): 7.36 ± 0.12
pKi hM3 (hM3 mAChR [4]): 7.84 ± 0.13
pKi hM1 (hM1 mAChR [5]): 8.03 ± 0.09
melting point: 270 to 271 °C

SMILES: CN1[C@@H]2CC[C@H]1C[C@@H](OC(=O)C(CO)c1ccccc1)C2 (stereo partly shown) [atropine]
effect on carbachol-induced MSC viability ([6]; pre-incubation 1 h, then carbachol 10^–10 M for 24 h): able to contrast the increase of carbachol-induced MSC viability

SMILES: C[N+](C)(C)C[C@H]1COCC(c2ccccc2)(c2ccccc2)O1 [(S)-(−)-2]
reduction of volume-induced contractions of the urinary bladder (urinary bladder): more efficaciously reduced the volume-induced contractions of the urinary bladder

SMILES: O=C(O[C@H]1C[C@H]2CC[C@@H](C1)[N+]21CCCC1)C(O)(c1ccccc1)c1ccccc1 [trospium]
pKi hM5 (hM5 mAChR [7]): 8.22
pKi hM2 (hM2 mAChR [8]): 8.94
pKi hM1 (hM1 mAChR [9]): 8.46
pKi hM4 (hM4 mAChR [10]): 8.84
pKi hM3 (hM3 mAChR [11]): 8.99

SMILES: C[N+](C)(C)CCOC(N)=O [carbachol]
effect of agonist on MSC viability ([6]; carbachol 10^–10 M, 24 h): increase of carbachol-induced MSC viability

Ki (hM4 mAChR [1]; read-out: pKi hM4 (converted)): 155 nM
Ki (hM5 mAChR [2]; read-out: pKi hM5 (converted)): 158 nM
Ki (hM2 mAChR [3]; read-out: pKi hM2 (converted)): 178 nM
Ki (hM3 mAChR [4]; read-out: pKi hM3 (converted)): 135 nM
Ki (hM1 mAChR [5]; read-out: pKi hM1 (converted)): 36.3 nM
SMILES: C[N+](C)(C)CC1COC(c2ccccc2)(c2ccccc2)CO1 (stereo not shown) [compound 10, 1-(5,5-Diphenyl-1,4-dioxan-2-yl)-N,N,N-trimethylmethanaminium Iodide]
